Reference: patent US11884671B2, “Purinone compounds and their use in treating cancer” (ASTRAZENECA AB, priority 2018, dated 2024)

Columns and labels:
TTK = TTK (Homo sapiens (Human), UniProt P33981); assay: TTK enzyme assay (LanthaScreen Eu Kinase Binding); details: arithmetic mean of two or more experiments; for IC50: read-out: TTK enz pIC50 (converted)
Protocol: The inhibitory activity of compounds against TTK was determined in a LanthaScreen® Eu Kinase Binding assay run by ThermoFisher Scientific as part of their SelectScreen® Biochemical Kinase Profiling Service. The LanthaScreen® Eu Kinase Binding assay format uses binding of an Alexa Fluor® conjugate or “tracer” to a kinase, which is detected by addition of a Eu-labeled anti-tag antibody. […] The degree of FRET measured in the assay is used to determine the binding of a compound.
(§1) 10 point three-fold dilution compound concentration-response curves, with a top concentration of 10 μM were generated from 10 mM stocks of compound solubilised in DMSO. All assays were performed in white, low volume Greiner 384-well plates (cat. #784207, Greiner), in a total reaction volume of 16 μL and 1% (v/v) final DMSO concentration. […] Plates were then read using a fluorescence plate reader. IC50 values were calculated using XLfit software (IDBS Ltd, Surrey, UK), with the curve fit to model number 205 (sigmoidal dose-response model).

JAK3 = JAK3 (Homo sapiens (Human), UniProt P52333); assay: JAK3 enzyme assay (Z'-LYTE); assay type: biochemical; details: 10 μM ATP, arithmetic mean of two or more experiments; for IC50: read-out: JAK3 enz pIC50 (converted)
Protocol: (§2) The inhibitory activity of compounds against AURKA, AURKB, JAK1, JAK2 and JAK3 was determined in Z′-LYTE® assays run by ThermoFisher Scientific as part of their SelectScreen® Biochemical Kinase Profiling Service. The Z′-LYTE® biochemical assay format employs a fluorescence-based, coupled-enzyme format and is based on the differential sensitivity of phosphorylated and non-phosphorylated peptides to proteolytic cleavage. The peptide substrate is labeled with two fluorophores—one at each end—that make up a FRET pair. In the primary reaction, the kinase transfers the gamma-phosphate of ATP to a single tyrosine, serine or threonine residue in a synthetic FRET-peptide. In the secondary reaction, a site-specific protease recognises and cleaves non-phosphorylated FRET-peptides. Phosphorylation of FRET-peptides suppresses cleavage by the Development Reagent. Cleavage disrupts FRET between the donor (i.e., coumarin) and acceptor (i.e., fluorescein) fluorophores on the FRET-peptide, whereas uncleaved, phosphorylated FRET-peptides maintain FRET. A ratiometric method, which calculates the ratio (the Emission Ratio) of donor emission to acceptor emission after excitation of the donor fluorophore at 400 nm, is used to quantitate reaction progress. Both cleaved and uncleaved FRET-peptides contribute to the fluorescence signals and therefore to the Emission Ratio. The extent of phosphorylation of the FRET-peptide can be calculated from the Emission Ratio.
as §1, with “black, non-binding,” for “white,”, “Corning” for “Greiner”, “#4514, Corning),” for “#784207, Greiner),”, “10” for “16”, “The kinase reaction was” for “Plates were”, “quenched by the addition of 5 μL of Development Reagent (ThermoFisher Scientific proprietary). […]” for “read using a fluorescence plate reader.”
JAK3: The 2×JAK3/Tyr 06 (ThermoFisher Scientific proprietary) mixture was prepared in 50 mM HEPES pH 7.5. 0.01% BRIJ-35, 10 mM MgCl2, 1 mM EGTA. […] After the 1 hour Kinase Reaction incubation, 5 μL of a 1:128 dilution of Development Reagent was added.

AURKA (Aurora A) = AURKA (Aurora A) (Homo sapiens (Human), UniProt O14965); assay: Aurora-A enzyme assay (Z'-LYTE); assay type: biochemical; details: 10 μM ATP, arithmetic mean of two or more experiments; for IC50: read-out: AurA enz pIC50 (converted)
Protocol: as §2
as §1, with “black, non-binding,” for “white,”, “Corning” for “Greiner”, “#4514, Corning),” for “#784207, Greiner),”, “10” for “16”, “The kinase reaction was” for “Plates were”, “quenched by the addition of 5 μL of Development Reagent (ThermoFisher Scientific proprietary). […]” for “read using a fluorescence plate reader.”
Aurora A (AurA): The 2×AURKA (Aurora A)/Ser/Thr 01 (ThermoFisher Scientific proprietary) mixture was prepared in 50 mM HEPES pH 7.5, 0.01% BRIJ-35, 10 mM MgCl2, 1 mM EGTA. […] After the 1 hour Kinase Reaction incubation, 5 μL of a 1:4096 dilution of Development Reagent was added.

TTK, sequence (P33981 whole entry): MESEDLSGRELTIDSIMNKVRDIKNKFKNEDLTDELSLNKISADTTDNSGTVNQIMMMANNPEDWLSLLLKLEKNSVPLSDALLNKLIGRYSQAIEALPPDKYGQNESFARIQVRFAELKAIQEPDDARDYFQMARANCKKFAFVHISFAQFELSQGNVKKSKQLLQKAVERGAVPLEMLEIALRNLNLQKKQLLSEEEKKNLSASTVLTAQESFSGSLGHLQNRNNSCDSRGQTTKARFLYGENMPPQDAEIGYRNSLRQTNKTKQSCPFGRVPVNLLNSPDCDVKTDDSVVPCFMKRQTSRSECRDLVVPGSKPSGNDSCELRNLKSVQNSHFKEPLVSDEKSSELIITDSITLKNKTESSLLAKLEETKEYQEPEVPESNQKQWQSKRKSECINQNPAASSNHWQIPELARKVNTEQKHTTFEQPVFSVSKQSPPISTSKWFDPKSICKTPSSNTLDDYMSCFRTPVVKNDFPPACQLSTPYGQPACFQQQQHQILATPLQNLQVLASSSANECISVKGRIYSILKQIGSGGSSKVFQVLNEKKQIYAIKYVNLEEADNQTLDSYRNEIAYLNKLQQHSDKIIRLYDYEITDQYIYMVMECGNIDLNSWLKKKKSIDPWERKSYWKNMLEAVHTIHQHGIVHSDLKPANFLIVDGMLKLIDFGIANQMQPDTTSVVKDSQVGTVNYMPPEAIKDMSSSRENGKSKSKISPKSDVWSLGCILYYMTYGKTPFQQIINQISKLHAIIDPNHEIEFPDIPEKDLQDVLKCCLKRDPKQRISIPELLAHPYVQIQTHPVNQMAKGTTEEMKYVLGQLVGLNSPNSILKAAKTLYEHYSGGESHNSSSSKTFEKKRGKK
AURKA (Aurora A), sequence (O14965 whole entry): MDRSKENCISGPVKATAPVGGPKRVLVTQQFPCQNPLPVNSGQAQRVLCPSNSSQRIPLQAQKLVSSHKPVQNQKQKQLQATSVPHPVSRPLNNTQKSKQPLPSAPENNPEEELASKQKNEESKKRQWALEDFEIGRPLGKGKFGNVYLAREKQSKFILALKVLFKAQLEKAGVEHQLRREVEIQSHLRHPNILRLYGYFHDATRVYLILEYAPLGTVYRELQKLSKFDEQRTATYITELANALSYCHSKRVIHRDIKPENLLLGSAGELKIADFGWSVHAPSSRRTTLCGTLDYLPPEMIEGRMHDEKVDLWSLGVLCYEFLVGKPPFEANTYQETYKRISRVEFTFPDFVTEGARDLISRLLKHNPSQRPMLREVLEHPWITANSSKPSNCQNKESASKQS
JAK3, sequence (P52333 whole entry): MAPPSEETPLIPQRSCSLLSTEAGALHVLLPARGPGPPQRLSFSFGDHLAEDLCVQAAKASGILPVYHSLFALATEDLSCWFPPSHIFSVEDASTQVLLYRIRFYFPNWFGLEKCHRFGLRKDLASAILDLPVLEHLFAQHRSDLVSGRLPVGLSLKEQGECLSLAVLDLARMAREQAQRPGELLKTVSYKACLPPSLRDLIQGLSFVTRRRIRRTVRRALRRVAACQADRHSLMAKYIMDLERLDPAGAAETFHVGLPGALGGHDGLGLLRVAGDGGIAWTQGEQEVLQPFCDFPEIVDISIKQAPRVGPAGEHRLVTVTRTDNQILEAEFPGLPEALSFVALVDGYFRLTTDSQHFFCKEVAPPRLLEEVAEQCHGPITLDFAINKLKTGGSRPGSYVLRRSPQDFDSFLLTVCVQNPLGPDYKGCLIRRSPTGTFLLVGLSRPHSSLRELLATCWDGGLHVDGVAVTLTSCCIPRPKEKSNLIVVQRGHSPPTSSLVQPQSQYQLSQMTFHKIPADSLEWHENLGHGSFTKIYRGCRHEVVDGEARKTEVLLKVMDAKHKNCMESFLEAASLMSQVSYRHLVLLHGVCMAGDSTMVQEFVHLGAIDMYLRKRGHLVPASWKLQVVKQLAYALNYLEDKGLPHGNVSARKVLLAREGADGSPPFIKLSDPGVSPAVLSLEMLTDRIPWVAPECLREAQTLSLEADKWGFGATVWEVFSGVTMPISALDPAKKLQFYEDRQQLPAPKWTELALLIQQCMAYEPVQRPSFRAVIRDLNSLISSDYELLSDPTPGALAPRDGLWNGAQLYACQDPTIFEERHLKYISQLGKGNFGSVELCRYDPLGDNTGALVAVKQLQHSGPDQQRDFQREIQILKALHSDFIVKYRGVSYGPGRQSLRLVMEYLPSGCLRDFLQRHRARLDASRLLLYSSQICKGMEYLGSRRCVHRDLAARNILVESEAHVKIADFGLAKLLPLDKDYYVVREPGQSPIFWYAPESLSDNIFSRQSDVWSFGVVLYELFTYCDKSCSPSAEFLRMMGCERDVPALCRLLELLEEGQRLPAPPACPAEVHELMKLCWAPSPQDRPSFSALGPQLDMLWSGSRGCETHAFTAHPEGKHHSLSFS

Compound	TTK enz pIC50 (TTK)	JAK3 enz pIC50 (JAK3)	AurA enz pIC50 (AURKA (Aurora A))	IC50 (TTK) [µM]	IC50 (JAK3) [µM]	IC50 (AURKA (Aurora A)) [µM]
Cc1cc2ncccc2cc1Nc1ncc2c(n1)n([C@H]1CC[C@H](O)CC1)c(=O)n2C [Example 6, 9-((1r,4r)-4-hydroxycyclohexyl)-7-methyl-2-((7-methylquinolin-6-yl)amino)-7,9-dihydro-8H-purin-8-one]	7.2	<5	<5			
Cc1cc2nccc(C)c2cc1Nc1ncc2c(n1)n([C@H]1CC[C@H](O)CC1)c(=O)n2C [Example 8, 2-((4,7-dimethylquinolin-6-yl)amino)-9-((1r,4r)-4-hydroxycyclohexyl)-7-methyl-7,9-dihydro-8H-purin-8-one]				0.631	> 10	> 10
Cc1cc2nccnc2cc1Nc1ncc2c(n1)n([C@H]1CC[C@H](O)CC1)c(=O)n2C [Example 10, 9-((1r,4r)-4-hydroxycyclohexyl)-7-methyl-2-((7-methylquinoxalin-6-yl)amino)-7,9-dihydro-8H-purin-8-one]				0.398	> 10	> 10
CC(=O)N1CCC(n2c(=O)n(C)c3cnc(Nc4cc5nccnc5cc4C)nc32)CC1 [Example 2, 9-(1-acetylpiperidin-4-yl)-7-methyl-2-((7-methylquinoxalin-6-yl)amino)-7,9-dihydro-8H-purin-8-one]	5.8	<5	<5			
Cc1cc2nnccc2cc1Nc1ncc2c(n1)n([C@H]1CCCOC1)c(=O)n2C [Example 27, (S)-7-methyl-2-((7-methylcinnolin-6-yl)amino)-9-(tetrahydro-2H-pyran-3-yl)-7,9-dihydro-8H-purin-8-one]	6.4	<5	<5			
Cc1cc2nnccc2cc1Nc1ncc2c(n1)n([C@H]1CC[C@@H](O)CC1)c(=O)n2C [Example 12, 9-((1s,4s)-4-hydroxycyclohexyl)-7-methyl-2-((7-methylcinnolin-6-yl)amino)-7,9-dihydro-8H-purin-8-one]	6.3	<5	<5			
Cc1cc2nccnc2cc1Nc1ncc2c(n1)n([C@H]1CC[C@](C)(O)CC1)c(=O)n2C [Example 18, 9-((1r,4r)-4-hydroxy-4-methylcyclohexyl)-7-methyl-2-((7-methylquinoxalin-6-yl)amino)-7,9-dihydro-8H-purin-8-one]				1.58	> 10	> 10
CC(=O)N1CCC(n2c(=O)n(C)c3cnc(Nc4cc5ncc(C)nc5cc4C)nc32)CC1 [Example 4, 9-(1-acetylpiperidin-4-yl)-2-((2,7-dimethylquinoxalin-6-yl)amino)-7-methyl-7,9-dihydro-8H-purin-8-one]	6.0	<5	<5			
Cc1cc2ncccc2cc1Nc1ncc2c(n1)n([C@@H]1CCN(C)C[C@@H]1F)c(=O)n2C [Example 46, 9-((3S,4R)-3-fluoro-1-methylpiperidin-4-yl)-7-methyl-2-((7-methylquinolin-6-yl)amino)-7,9-dihydro-8H-purin-8-one]	5.4	<5	<5			
Cc1cc2ncccc2cc1Nc1ncc2c(n1)n([C@H]1CC[C@](C)(N)CC1)c(=O)n2C [Example 40, 9-((1r,4r)-4-amino-4-methylcyclohexyl)-7-methyl-2-((7-methylquinolin-6-yl)amino)-7,9-dihydro-8H-purin-8-one]				1.58	> 7.94	> 10
Cc1cc2nccnc2cc1Nc1ncc2c(n1)n([C@@H]1CCOC1)c(=O)n2C [Example 24, (R)-7-methyl-2-((7-methylquinoxalin-6-yl)amino)-9-(tetrahydrofuran-3-yl)-7,9-dihydro-8H-purin-8-one]	5.6	<5	<5			
Cc1cc2nccnc2cc1Nc1ncc2c(n1)n([C@@H]1CCCOC1)c(=O)n2C [Example 26, (R)-7-methyl-2-((7-methylquinoxalin-6-yl)amino)-9-(tetrahydro-2H-pyran-3-yl)-7,9-dihydro-8H-purin-8-one]	5.8	<5	<5			
Cc1cc2nnccc2cc1Nc1ncc2c(n1)n([C@H]1CCOC1)c(=O)n2C [Example 21, (S)-7-methyl-2-((7-methylcinnolin-6-yl)amino)-9-(tetrahydrofuran-3-yl)-7,9-dihydro-8H-purin-8-one]	6.4	<5	<5			
Cc1cnc2cc(Nc3ncc4c(n3)n(C3CCOCC3)c(=O)n4C)c(C)cc2n1 [Example 33, 2-((2,7-dimethylquinoxalin-6-yl)amino)-7-methyl-9-(tetrahydro-2H-pyran-4-yl)-7,9-dihydro-8H-purin-8-one]				1.26	> 10	> 10
CC(=O)N1CCC(n2c(=O)n(C)c3cnc(Nc4cc5cccnc5cc4C)nc32)CC1 [Example 51, 9-(1-acetylpiperidin-4-yl)-7-methyl-2-((7-methylquinolin-6-yl)amino)-7,9-dihydro-8H-purin-8-one]	6.4	<5	<5			
Cc1cc2ncccc2cc1Nc1ncc2c(n1)n([C@H]1CC[C@@H](O)CC1)c(=O)n2C [Example 11, 9-((1s,4s)-4-hydroxycyclohexyl)-7-methyl-2-((7-methylquinolin-6-yl)amino)-7,9-dihydro-8H-purin-8-one]				0.398	> 10	> 10
Cc1cc2ncccc2cc1Nc1ncc2c(n1)n([C@@H]1CCNC[C@@H]1F)c(=O)n2C [Example 38, 9-((3S,4R)-3-fluoropiperidin-4-yl)-7-methyl-2-((7-methylquinolin-6-yl)amino)-7,9-dihydro-8H-purin-8-one]	<5.1	<5	<5			
CC(=O)N1CCC(n2c(=O)n(C)c3cnc(Nc4cc5nc(C)cnc5cc4C)nc32)CC1 [Example 5, 9-(1-acetylpiperidin-4-yl)-2-((3,7-dimethylquinoxalin-6-yl)amino)-7-methyl-7,9-dihydro-8H-purin-8-one]	5.3	<5	<5			
Cc1cc2ncccc2cc1Nc1ncc2c(n1)n(C1CCN(C3COC3)CC1)c(=O)n2C [Example 47, 7-methyl-2-((7-methylquinolin-6-yl)amino)-9-(1-(oxetan-3-yl)piperidin-4-yl)-7,9-dihydro-8H-purin-8-one]	5.8	<5	<5			
Cc1cc2nccnc2cc1Nc1ncc2c(n1)n([C@H]1CC[C@@H](O)CC1)c(=O)n2C [Example 13, 9-((1s,4s)-4-hydroxycyclohexyl)-7-methyl-2-((7-methylquinoxalin-6-yl)amino)-7,9-dihydro-8H-purin-8-one]				0.316	> 10	> 10
COc1ccnc2cc(C)c(Nc3ncc4c(n3)n([C@H]3CC[C@H](O)CC3)c(=O)n4C)cc12 [Example 9, 9-((1r,4r)-4-hydroxycyclohexyl)-2-((4-methoxy-7-methylquinolin-6-yl)amino)-7-methyl-7,9-dihydro-8H-purin-8-one]	6.1	<5	<5.1			
